Data on 2 molecules can be found in patent publication US7928239B2, “Inhibition of RAF kinase using quinolyl, isoquinolyl or pyridyl ureas” (Bayer Healthcare LLC, priority 1999, dated 2011).

As a reminder, the melting point is the temperature of the solid-liquid transition.

With `CNC(=O)c1ccc(Oc2ccc(NC(=O)Nc3ccc(Cl)c(C(F)(F)F)c3)cc2)cn1` [Entry 56, N-(4-chloro-3-(trifluoromethyl)phenyl)-N′-(4-(2-(N-methylcarbamoyl)-5-pyridyloxy)phenyl) urea], the melting point lay within 238 to 245 °C.
Turning to `CNC(=O)c1cc(Oc2ccc(NC(=O)Nc3ccc(Oc4ccnc(C(=O)NC)c4)cc3)cc2)ccn1` [Entry 103, bis(4-(2-(N-methylcarbamoyl)-4-pyridyloxy)phenyl) urea], the melting point fell in the range of 125 to 130 °C.
